{"source": "patent US20240173389A1", "about": "“Compositions and Methods For Reducing Immune Intolerance” (LAPIX THERAPEUTICS, INC., priority 2021, published 2024)", "key": {"B57BL6 Mice [1]": {"system": "B57BL6 Mice", "experiment": "Anti-FVIII titer analysis in mice given FVIII co-mixed with compound SC QW 4 weeks, then FVIII re-challenge (Example 1)", "assay_type": "in vivo", "protocol": "(§1) OPLT was dissolved in sterile PBS, and pH was adjusted to approximately 7.5. OPLS, a comparator compound, was dissolved in sterile PBS, and pH was adjusted to approximately 7.5. FVIII in PBS was used as a control. For treatment, FVIII was co-mixed with OPLT, OPLS or diluted in PBS before administration, as per group assignment for each animal. For re-challenge, FVIII was administered alone SC to all animals regardless of group assignment. […] For a head-to-head comparison, 5 mg/injection was selected for OPLT. FVIII was dosed at 1 μg/injection.\nThe study was conducted in two parts: a treatment phase and a re-challenge phase. The objective of the treatment phase was to test the ability of OPLT to reduce the immunogenicity of FVIII as an antigen compared to animals administered FVIII or FVIII+OPLS. Animals were injected with FVIII, FVIII+OPLT, or FVIII+OPLS SC QW for 4 weeks. Blood samples were collected for anti-FVIII titer analysis after a one-week washout period from the last dose. The objective of the re-challenge phase of the study was to evaluate the duration of tolerance. Animals that have been successfully tolerized toward FVIII will not mount a robust immune response towards FVIII upon subsequent exposure to FVIII. After the washout period, animals were injected with (1 μg) FVIII SC QW for 2 weeks. Blood samples were collected one week after each FVIII injection for anti-FVIII titer analysis."}, "FoxP3+/CD4+ T-cell [2]": {"system": "FoxP3+/CD4+ T-cell", "experiment": "Ex vivo flow cytometry of splenocytes for FoxP3+/CD4+ T-cells after FVIII treatment period (Example 1)", "assay_type": "in vivo, mice", "protocol": "as §1\n(§2) One week after the last dose in the treatment period, one animal from each group was selected at random for ex vivo analysis of the T-cell population. Spleens were collected and a single-cell suspension was prepared for cellular phenotyping by flow cytometry. Cells were stained and gated for CD4+ T-cells. FoxP3 expression level was evaluated for each animal."}, "B57BL6 Mice [3]": {"system": "B57BL6 Mice", "experiment": "Anti-GAA titer analysis in mice given GAA with OPLT or liposomal OBLT, then GAA re-challenge (Example 2)", "assay_type": "in vivo", "protocol": "OPLT and OBLT were dissolved in sterile PBS, and pH was adjusted to approximately 7.5. Liposomal OBLT was prepared using DMPC. GAA in PBS was used as a control. For the tolerance induction (or treatment) period, GAA was co-mixed with OPLT or liposomal OBLT, or diluted in PBS before administration as per group assignment for each animal. For the re-challenge protocol, GAA was administered IV alone to all animals regardless of group assignment. GAA was administered with 5 mg of OPLT SC QW. […] For all SC groups, GAA was dosed at 1 μg/injection (1 μg/week). For PO groups, GAA was dosed at 0.14 μg/dose QD (approximately 1 μg/week).\nThe objective of the treatment phase was to test the ability of OPLT or liposomal OBLT to reduce the immunogenicity of GAA, as an antigen, compared to animals administered GAA alone. Animals were injected with GAA, GAA+OPLT, or GAA+liposomal OBTL SC QW for 4 weeks. Blood samples were collected for anti-GAA analysis after a one-week washout period from the last dose. For oral tolerance, animals were administered GAA or GAA+liposomal OBLT PO, QD for 4 weeks. GAA was also administered SC QW to both groups during the treatment period. Blood samples were collected for anti-GAA titer analysis after a one-week washout period from the last dose.\nThe objective of the re-challenge phase of the study was to evaluate the duration of tolerance. […] After the washout period, animals were injected with (1 μg) GAA SC QW for 2 weeks. Blood samples were collected one week after each injection for anti-GAA titer analysis."}, "FoxP3+/CD4+ T-cell [4]": {"system": "FoxP3+/CD4+ T-cell", "experiment": "Ex vivo flow cytometry of splenocytes for FoxP3+/CD4+ T-cells after AAV9 treatment period (Example 3)", "assay_type": "in vivo, mice", "details": "SC QW 4 weeks with AAV9; OPLT 5 mg, liposomal OBLT 50 μg OBLT; one animal per group", "protocol": "(§3) OPLT and OBLT were dissolved in sterile PBS, and pH was adjusted to approximately 7.5. Liposomal OBLT was prepared using […]. AAV9 in PBS was used as a control. For treatment, AAV9 was co-mixed with OPLT or liposomal OBLT before administration, as per group assignment for each animal. AAV9 was administered with 5 mg of OPLT SC QW, 50 μg OBLT SC QW as liposomal OBLT or 7.2 μg OBLT PO QD as liposomal OBLT. For all SC groups, AAV9 was dosed at 10^6 particles/injection. For PO groups, AAV9 was dosed at 1.43×10^5 particles/injection.\n(§4) Animals were injected with AAV9, AAV9+OPLT, or AAV9+liposomal OBLT SC QW for 4 weeks. Blood samples were collected for anti-AAV9 titer analysis after a one-week washout period from the last dose. For oral tolerance, animals were administered AAV9 or AAV9+liposomal OBLT PO, QD for 4 weeks. AAV9 was also administered SC QW to both groups during the treatment period. Blood samples were collected for anti-AAV9 titer analysis after a one-week washout period from the last dose.\nas §2, with “dose,” for “dose in the treatment period,”, “ex-vivo” for “ex vivo”"}, "B57BL6 Mice [5]": {"system": "B57BL6 Mice", "experiment": "Anti-AAV9 titer analysis in mice given AAV9 with OPLT or liposomal OBLT (Example 3)", "assay_type": "in vivo", "protocol": "as §3, §4"}, "TLR3": {"system": "TLR3", "experiment": "TNF-α production by splenocytes in response to TLR3 ligand poly(I:C)", "assay_type": "cell-based, C57BL/6 mice", "details": "for TNF-α mean: 48 hours, OPLT 1.85 μg/ml, dexamethasone 100 μg/ml, rapamycin 625 μg/ml", "protocol": "OPLT was dissolved in sterile PBS at 100 μM, and pH was adjusted to approximately 7.5. Splenocytes from naïve C57BL/6 mice were stained with CFSE, prepared, cultured, and dosed. Cells were seeded at 2×10^5 cells/well.\nTo evaluate the effects of OPLT on cytokine production by splenocytes in response to different TLR ligands, splenocytes were incubated with one of the following TLR ligands in triplicate: PGN, LPS, ODN CPG, dsRNA, or ssRNA, as per group assignment. Cells were then treated as follows: • Control: No treatment; • OPLT: Cells were dosed with 1.85 μg/ml; • Dexamethasone: Cells were dosed with 100 μg/ml; • Rapamycin: Cells were dosed with 625 μg/ml. Cells were incubated for 48 hours before collecting the supernatant for TNF-α analysis.\nThe supernatant was collected for TNF-α analysis by ELISA."}, "[6]": {"details": "weeks 1 and 2 of re-challenge with FVIII alone SC QW"}}}
{"molecule": "N[C@@H](Cc1ccc(OP(=O)(O)O)cc1)C(=O)O", "note": "[OPLT, O-phospho-L-tyrosine]", "values": [{"measurement": "inducing sustained immunotolerization toward FVIII", "setting": "B57BL6 Mice [1]; OPLT versus OPLS, 5 mg/injection each", "result": "more effective than OPLS"}, {"measurement": "anti-FVIII titers versus FVIII control group", "setting": "B57BL6 Mice [1]; end of treatment after one-week washout", "result": "statistically lower than the FVIII control group"}, {"measurement": "animals that developed anti-FVIII antibodies", "setting": "B57BL6 Mice [1]; end of treatment after one-week washout, 5 mg/injection + FVIII SC QW 4 weeks, FVIII control 8/8", "result": "3/8"}, {"measurement": "average anti-FVIII titer in re-challenge period", "setting": "B57BL6 Mice [1]; [6]", "result": "lower titer than animals in the OPLS+FVIII and the FVIII control group"}, {"measurement": "immune response to FVIII re-challenge", "setting": "B57BL6 Mice [1]; [6]", "result": "did not develop a robust immune response"}, {"measurement": "increase in FoxP3+/CD4+ compared to the FVIII alone group", "setting": "FoxP3+/CD4+ T-cell [2]; 5 mg/injection co-mixed with FVIII 1 μg SC QW 4 weeks, splenocytes of one animal per group one week after last dose", "result": 188, "unit": "%"}, {"measurement": "increase in FoxP3+/CD4+ compared to OPLS+FVIII treatment", "setting": "FoxP3+/CD4+ T-cell [2]; 5 mg/injection co-mixed with FVIII SC QW 4 weeks", "result": 73, "unit": "%"}, {"measurement": "FoxP3+/CD4+ T-cell (flow cytometry of splenocytes)", "setting": "FoxP3+/CD4+ T-cell [2]; 5 mg/injection co-mixed with FVIII SC QW 4 weeks, one animal per group, FVIII alone 2.94", "result": 8.47}, {"measurement": "animals that developed anti-GAA titers", "setting": "B57BL6 Mice [3]; SC QW 4 weeks, 5 mg OPLT + GAA 1 μg, after one-week washout, controls 6/6", "result": "4/6"}, {"measurement": "anti-GAA titers versus control groups", "setting": "B57BL6 Mice [3]; SC QW 4 weeks, OPLT 5 mg, liposomal OBLT 50 μM (1.3 μg OBLT/injection), after one-week washout", "result": "statistically lower than the controls and comparators"}, {"measurement": "immune response to GAA re-challenge", "setting": "B57BL6 Mice [3]; SC treatment group, weeks 1 and 2 of re-challenge, statistically significant at week 2 only", "result": "did not develop a robust immune response"}, {"measurement": "increase in FoxP3+/CD4+ compared to the untreated group", "setting": "FoxP3+/CD4+ T-cell [4]", "result": 122, "unit": "%"}, {"measurement": "anti-AAV9 immune response/titers versus AAV9 alone control", "setting": "B57BL6 Mice [5]; SC QW 4 weeks", "result": "did not elicit an immune response"}, {"measurement": "animals that developed measurable anti-AAV9 antibodies", "setting": "B57BL6 Mice [5]; SC QW 4 weeks with AAV9, after one-week washout, AAV9 SC control 8/8", "result": "0/8"}, {"measurement": "TNF-α mean", "setting": "TLR3; PolyI:C 0 ng/ml", "result": 0, "unit": "pg/mL"}, {"measurement": "TNF-α mean", "setting": "TLR3; PolyI:C 1 ng/ml, CTL 0", "result": 0, "unit": "pg/mL"}, {"measurement": "TNF-α mean", "setting": "TLR3; PolyI:C 10 ng/ml, CTL 109", "result": 0, "unit": "pg/mL"}, {"measurement": "TNF-α mean", "setting": "TLR3; PolyI:C 100 ng/ml, CTL 162", "result": 0, "unit": "pg/mL"}, {"measurement": "effect on splenocytes' TNF-α response to the TLR3 ligand poly(I:C) (in words)", "setting": "TLR3; compared to control at all doses", "result": "abrogated splenocytes' response to the TLR3 ligand poly(I:C)"}]}
